# Measurements reported in ChEMBL document CHEMBL1126231, “Synthesis and phototoxicity of a series of haematoporphyrin analogues” (1992).
# How the values were obtained:
# [1] = In vivo localization capacities at 24 hr post injection in a mouse C6 intracerebral glioma model and the tumor; normal brain ratio was calculated; assay type: functional
# [2] = In vivo localization capacities at 6 hr post injection in a mouse C6 intracerebral glioma model and the tumor; normal brain ratio was calculated; assay type: functional
SMILES,Ratio [1],Ratio [2]
CCOC(C)C1=C(C)c2cc3[nH]c(cc4[nH]c(cc5nc(cc1n2)C(C)=C5C(C)OCC)c(C)c4CCC(=O)O)c(CCC(=O)O)c3C (stereo not given),8.7,17.5
CCOCCOC(C)C1=C(C)c2cc3[nH]c(cc4[nH]c(cc5nc(cc1n2)C(C)=C5C(C)OCCOCC)c(C)c4CCC(=O)NCCN(C)C)c(CCC(=O)NCCN(C)C)c3C (stereo not given),8,15.2
CC1=C(C(C)SCC(=O)O)c2cc3nc(cc4[nH]c(cc5[nH]c(cc1n2)c(C)c5CCC(=O)O)c(CCC(=O)O)c4C)C(C(C)SCC(=O)O)=C3C (stereo not given),28.2,23
CCOC(C)C1=C(C)c2cc3[nH]c(cc4[nH]c(cc5nc(cc1n2)C(C)=C5C(C)OCC)c(C)c4CCC(=O)NCCN(C)C)c(CCC(=O)NCCN(C)C)c3C (stereo not given),6.4,2.4
CCOCCOC(C)C1=C(C)c2cc3[nH]c(cc4[nH]c(cc5nc(cc1n2)C(C)=C5C(C)OCCOCC)c(C)c4CCC(=O)O)c(CCC(=O)O)c3C (stereo not given),25.1,37.7
